Source: patent US20180050034A1, “ANTIFUNGAL TREATMENT OF CROHN'S DISEASE” (Gerbe Labs Inc., priority 2016, published 2018)

Experiments:
Type in all cases: cell-based
[1] = system: Aspergillus fumigatus+Candida albicans co-culture; test: Checkerboard synergy assay, co-culture (FIG. 7, Table 4); settings: combination of Aspergillus fumigatus and Candida albicans; read-out: MIC (agent alone, read from checkerboard FIG. 7)
Description: This study evaluated the synergistic activity of 2 antifungal agents (Itraconazole and Ketoconazole) with an antibiotic (Vancomycin or Tobramycin or Amikacin) against the spores of 2 fungi; Aspergillus fumigatus MYA3626 and Candida albicans ATCC 90028; individually as well as in co-cultivation (Aspergillus fumigatus+Candida albicans). Synergy testing was carried out as per checkerboard assay by Victor Lorian methodology. See, for example, Lorian, V. Antibiotics in Laboratory Medicine. Edition 5: (2005).
In vitro activity of the test articles were tested in combination by the Checkerboard assay. See, for example, Lorian, V. Antibiotics in Laboratory Medicine. Edition 5: (2005). The assay was carried out in duplicates. The starting concentrations for the test articles was determined as per the MIC data. Two-fold serial dilutions of 8×MIC for the antifungal agents; Itraconazole and Ketoconazole was performed separately. When Itraconazole and Ketoconazole were combined in a microtiter plate, the concentration of both agents was 2×MIC. […] The plates were incubated at 35° C. for 3-5 days. The assay plates were visually inspected to confirm the MIC endpoint and used to calculate the Fractional Inhibitory Concentration (FIC) Index to determine any synergistic interaction.
The FIC Index was calculated as follows: […]

Candida albicans = test: Culture sensitivity, Patient 7 isolate; settings: Patient 7 Candida albicans culture
Excerpt: (§1) The patient underwent the standard workup for CRS, sleep disorder, and nasal obstruction, plus our diagnostic skin test and sinus CT scan.

[2] = system: Co-cultivation of A. fumigatus + C. albicans (MYA3626 + ATCC 90028); test: Broth microdilution MIC assay against co-culture of fungal spores; settings: Aspergillus fumigatus + Candida albicans co-culture; repeated MIC study (Table 4), agent alone; listed as Itraconazone
Description: Broth Microdilution Minimal Inhibitory Concentration (MIC) assays were performed to obtain the MIC values for Itraconazole and Ketoconazole with an antibiotic (Vancomycin or Tobramycin or Amikacin) against the two fungal strains.
The strains were maintained as a frozen glycerol stocks at −80° C. The fungal strains were prepared by thawing a glycerol stock, streaking and growing onto Sabouraud's Dextrose Agar (SDA) plates, overnight at 35±2° C. in aerobic conditions and used for the assay.
Antifungal agents: Itraconazole (Cat #16657, Lot #087K1322), Ketoconazole (Cat # K1003, Lot # SLBR1290V). Stocks were prepared in appropriate solvents following the CLSI guidelines. See, for example, Reference method for broth dilution antifungal susceptibility testing of filamentous fungi, approved standard, 2nd ed. CLSI document M38-A2, vol. 28. CLSI, Wayne, Pa. (2008).
The completely synthetic medium RPMI-1640 (with glutamine, without bicarbonate, and with phenol red as a pH indicator) was buffered with 0.165 mol/L MOPS (3-[N-morpholino] propanesulfonic acid) buffer was used as the growth medium for the fungal strains. Overnight cultures of the fungal strains were grown on Difco™ Sabouraud's Dextrose Agar (SDA) plates at 35° C. To induce conidium and sporangiospore formation, the culture plates were transferred to incubator and grown for 5-7 days 30° C. or until good sporulation was obtained. […]

S. aureus, a bacteria = test: Culture sensitivity, Patient 7 isolate; settings: Patient 7 bacterial culture
Excerpt: as §1

| MIC [1] | MIC [2] | Compound | Culture sensitivity (Candida albicans) | Culture sensitivity (S. aureus, a bacteria) |
| --- | --- | --- | --- | --- |
| > 4 µg/mL |  | CC(=O)N1CCN(c2ccc(OCC3COC(Cn4ccnc4)(c4ccc(Cl)cc4Cl)O3)cc2)CC1 (centres unmarked) [Ketoconazole] | sensitive |  |
| > 0.5 µg/mL | 1 µg/mL | CCC(C)n1ncn(-c2ccc(N3CCN(c4ccc(OCC5COC(Cn6cncn6)(c6ccc(Cl)cc6Cl)O5)cc4)CC3)cc2)c1=O (centres unmarked) [Itraconazole] |  |  |
|  |  | NC[C@H]1O[C@H](O[C@H]2[C@H](O)[C@@H](O[C@H]3O[C@H](CO)[C@@H](O)[C@H](N)[C@H]3O)[C@H](N)C[C@@H]2N)[C@H](N)C[C@@H]1O [tobramycin] |  | sensitive |
